The results in this text go back to patent US10640507B2, “PBD antibacterial agents” (KING'S COLLEGE LONDON, priority 2015, dated 2020).

The subject of one assay is Psueudomonas GH12. The assay is described as follows: General MIC protocol, Gram negative. As to conditions: Pseudomonas. The format is cell-based. The protocol:
(§1) General Minimum Inhibitory Concentration (MIC) Protocol
(§2) 1. Grow up cultures of bacterial strains to be tested overnight.
(§3) 2. Dilute down overnight cultures to concentration of 1×10^6 bacteria/ml (OD0.01) in Tryptic soy broth (TSB).
(§4) 3. Add 100 μl of TSB media to column 2-column 12 in 96 well plate (keeping column 1 clear).
(§5) 4. Make up compound to a concentration of 64 μg/ml in water (or alternatively to twice the chosen maximum concentration to be tested).
(§6) 5. Add 100 μl of antibiotic solution to the 1st and 2nd columns.
(§7) 6. Using a multichannel pipette take 100 μl from the 2nd column wells and pipette into 3rd column wells and repeat down the 96 well plate (remembering to include controls i.e. uninfected media and media with no antibiotic).
(§8) 7. To each well (except uninfected control row H) add 100 μl of bacterially infected media at a concentration of 1×10^6/ml.
(§9) 8. This dilutes down the concentration of the antibiotic by half (top dose is therefore 32 μg/ml in column 1) and also gives you a starting bacterial concentration of 5×10^5/ml.
(§10) 9. Wrap plate with parafilm to prevent evaporation.
(§11) 10. Leave at desired temperature (37° C. unless specified elsewhere) for 20 hours.
(§12) 11. Next day check plates for growth and measure optical density (i.e. absorbance) at a wavelength of 600 nm (OD600).
(§13) An example of such a plate is shown in FIG. 1 where column A represents wells that receive the top dose 100 μl; column B represents wells that receive the top dose 100 μl+100 μl TSB; and column C represents wells that receive 100 μl TSB. Row H which is marked by a box labelled D represents a blank where the cells receive no bacteria.
The activity of the compound designated PP-A148 was tested against an extended panel of Klebsiella and Pseudomonas Gram-negative bacterial strains that have proven drug resistant difficult to treat. […] The minimum inhibitory concentration (MIC) was measured using the general MIC protocol given above.

The test system of a further assay is P. aeruginosa PA01. In words: General MIC protocol, Gram negative. Type of assay: cell-based. The protocol:
as §1, §2, §3, §4, §5, §6, §7, §8, §9, §10, §11, §12, §13

The next assay relates to K. pneumonia NCTC 13439. The assay is described as follows: General MIC protocol, Gram negative. The format is cell-based. The following applies: Klebsiella pneumoniae, NCTC13439. The protocol:
as §1, §2, §3, §4, §5, §6, §7, §8, §9, §10, §11, §12, §13

Another assay concerns K. pneumonia MGH 78578. In words: General MIC protocol, Gram negative. The format is cell-based. The following applies: Klebsiella pneumoniae, MGH78578. The procedure: as §1, §2, §3, §4, §5, §6, §7, §8, §9, §10, §11, §12, §13
The next assay relates to WI38 (Healthy cell line). The assay is described as follows: MTT cytotoxicity assay. The format is cell-based. The following applies: Homo sapiens, WI-38; MTT; 24 h continuous exposure; highest concentration tested 20 μM; read-out: IC50 WI38 (Healthy cell line). The procedure:
(§14) Two immortalised human cell lines, HeLa and WI38 were used for cytotoxicity screening of the compounds. HeLa is a human cervical cancer cell line and WI38 is a normal healthy cell line. The cell lines were obtained from the American Type Culture Collection. The cell-lines were maintained in monolayer culture in 75 cm2 flasks (TPP, Switzerland) under a humidified 5% CO2 atmosphere at 37° C. The HeLa cell line was maintained in Dulbecco's Modified Eagles Media (DMEM; Invitrogen) supplemented with foetal bovine serum (10% v/v; Invitrogen), L-glutamine (2 mM; Invitrogen), non-essential amino acids (1×; Invitrogen) and Penicillin-Streptomycin (1% v/v, Invitrogen). For WI38, Eagle's Minimum Essential Medium, and Penicillin-Streptomycin (1% v/v, Invitrogen) and foetal bovine serum (10%, nvitrogen) was used. For passaging, cells were washed with phosphate buffered saline [PBS] (GIBCO 14040, Invitrogen, UK), incubated with trypsine (GIBCO 25300, Invitrogen, UK), and re-seeded into fresh medium. For seeding, cells were counted using a Neubauer haemocytometer (Assistant, Germany) by microscopy (Nikon, USA) on a non-adherent suspension of cells that were washed in PBS, trypsinised, centrifuged at 8° C. at 8000 rpm for 5 min and re-suspended in fresh medium.
(§15) The cells were grown in normal cell culture conditions at 37° C. under a 5% CO2 humidified atmosphere using appropriate medium. The cell count was adjusted to 10^5 cells/ml/ and 20,000 cells were added per well. The cells were incubated for 24 hours and 1 μl of the appropriate inhibitor concentrations were to the wells in triplicates. After 24 h of continuous exposure to each compound, the cytotoxicity was determined using the MIT (3-(4,5-Dimethylthiazol-2-yl)-2,5-diphenyltetrazolium bromide) (Lancaster Synthesis Ltd, UK) colorimetric assay. Absorbance was quantified by spectrophotometry at λ=570 nm (Envision Plate Reader, PerkinElmer, USA). IC50 values were calculated by a dose-response analysis using the Prism Graphpad Prism® software. The cytotoxicity results are shown below in Table 12.
For orientation: Tetrazolium dyes change colour on reduction, which living cells bring about.

The subject of assay [1] is HeLa (Cervical cancer cell line). The assay is described as follows: MTT cytotoxicity assay. The format is cell-based. The following applies: Homo sapiens, MTT, 24 h continuous exposure, read-out: IC50 HeLa (Cervical cancer cell line). The procedure:
as §14, §15

For the next assay, the system named is NCTC 13368. In words: Effect of efflux pump inhibitors (EPIs) on MIC. As to conditions: for MIC: Klebsiella pneumoniae; for +PABN MIC: PABN at 25 μg/ml. Type of assay: cell-based, K. pneumoniae. The procedure: as §2, §3, §4
(§16) 4. Make up compound to a concentration of 64 μg/ml in water.
as §6
(§17) 6. Using a multichannel pipette take 100 μl from the 2nd column wells and pipette into 3rd column wells and repeat down the 96 well plate (remember to include controls i.e. uninfected media and media with no antibiotic).
(§18) 7. To each well (except uninfected control row H) add 50 μl/well of EPI at 4× final concentration in TSB.
(§19) 9. In wells used to test the effect of the EPI carbonyl cyanide 3-chlorophenylhydrazone (CCCP) the CCCP is added at 10 μg/ml final concentration.
(§20) 10. In wells used to test the effect of the EPI phenylalanine-arginine β-naphthylamide (PABN) the PABN is added at 25 μg/ml final concentration.
(§21) 11. In wells used to test the effect of the PABN+Mg, the PABN is added at 25 μg/ml final concentration, with 1 mM MgSO4 in TSB.
(§22) 12. Wrap plate with parafilm to prevent evaporation.
(§23) 13. Leave at desired temperature (37° C. unless specified elsewhere) for 20 hours.
(§24) 14. Next day check plates for growth and measure optical density (i.e. absorbance) at a wavelength of 600 nm (OD600).
(§25) Compound KMR-14-33 was tested against a range of bacterial species using the above protocol. Compound PP-A148 was also tested against a more limited range of bacterial species using the above protocol. For KMR-14-33 measurements were carried out for the compound alone, for the compound plus CCCP, for the compound plus PABN and for the compound plus PABN and plus Mg. For PP-A148 measurements were carried out for the compound alone and for the compound plus PABN.

Another assay concerns M6. The assay is described as follows: Effect of efflux pump inhibitors (EPIs) on MIC. The format is cell-based, K. pneumoniae. As to conditions: for MIC: Klebsiella pneumoniae; for +PABN MIC: PABN at 25 μg/ml. The protocol:
as §2, §3, §4, §16, §6, §17, §18, §19, §20, §21, §22, §23, §24, §25

[2] abbreviates: Pseudomonas aeruginosa, PA01, PA01.
The mark [3] stands for this setting: NCTC13368, read-out: Control with no EPI MIC.
Where [4] appears, read: read-out: Control with no EPI MIC.

For orientation: MIC means the lowest concentration found to suppress growth. What is called IC50 is the point on the concentration scale where inhibition reaches its midpoint.

In brackets after ≈: the same amount, converted by molar mass. Read-outs that look alike come from different tables or passages of the source.

Consider `O=C(O)c1cn(C2CC2)c2cc(N3CCNCC3)c(F)cc2c1=O` [CIP, ciprofloxacin, reference compound], for which the MIC against Psueudomonas GH12 was 16 µg/mL (≈ 48.3 µM); in the assay on P. aeruginosa PA01 (Pseudomonas aeruginosa, PA01, read-out: MIC) it was 1 µg/mL (≈ 3.02 µM); in the assay with K. pneumonia NCTC 13439 (K. pneumonia NCTC 13439, read-out: MIC), 8 to 16 µg/mL (≈ 24.1 to 48.3 µM); in the assay on K. pneumonia MGH 78578 (K. pneumonia MGH 78578, read-out: MIC), 1 µg/mL (≈ 3.02 µM).
As for `COc1cc2c(cc1OCCCC(=O)Nc1cc(C(=O)Nc3ccc4sc(C(=O)N(C)C)cc4c3)n(C)c1)N=C[C@@H]1CCCN1C2=O` [KMR-14-33, (S)—N-(2-(dimethylcarbamoyl)benzo[b]thiophen-5-yl)-4-(4-((7-methoxy-5-oxo-2,3,5,11a-tetrahydro-1H-benzo[e]pyrrolo[1,2-a][1,4]-diazepin-8-yl)oxy)butanamido)-1-methyl-1H-pyrrole-2-carboxamide], the IC50 is above 20 µM with WI38 (Healthy cell line) and 15.6 µM in assay [1]. For the same compound, the MIC against P. aeruginosa PA01 (PA01, KMR-14-33 alone) was above 32 µg/mL; against P. aeruginosa PA01 (setting [2]), above 32 µg/mL; in the assay with K. pneumonia NCTC 13439 it was 2 µg/mL (≈ 3.05 µM); against K. pneumonia MGH 78578, 1 µg/mL (≈ 1.52 µM); in the assay on NCTC 13368 (NCTC13368, read-out: +CCCP MIC), 2 µg/mL (≈ 3.05 µM); in the assay with NCTC 13368 (setting [3]), 2 µg/mL (≈ 3.05 µM). The figures for the MIC in the assay with M6 (read-out: +CCCP MIC) and with M6 (setting [4]) were 0.125 µg/mL (≈ 0.19 µM) and 1 µg/mL (≈ 1.52 µM), respectively. For the same compound, the “+PABN MIC” value in the assay with NCTC 13368 (NCTC 13368) stood at 1 µg/mL; in the assay on M6 (M6), 0.125 µg/mL. In addition, the “+PABN + Mg MIC” value in the assay on NCTC 13368 (NCTC 13368, PABN at 25 μg/ml with 1 mM MgSO4) came to 0.5 µg/mL; in the assay on M6 (M6, PABN at 25 μg/ml with 1 mM MgSO4), 0.25 µg/mL.
Consider `COc1cc2c(cc1OCCCC(=O)Nc1cc(C(=O)Nc3ccc4oc(C(=O)N5CCSCC5)cc4c3)n(C)c1)N=C[C@@H]1CCCN1C2=O` [PP-A148, (S)-4-(4-((7-methoxy-5-oxo-2,3,5,11a-tetrahydro-1H-benzo-[e]pyrrolo[1,2-a][1,4]diazepin-8-yl)oxy)butanamido)-1-methyl-N-(2-(thiomorpholine-4-carbonyl)benzofuran-5-yl)-1H-pyrrole-2-carboxamide], for which the IC50 (in the assay on WI38 (Healthy cell line); in assay [1]) was above 20 µM each time. Moreover, the MIC in the assay with Psueudomonas GH12 was above 128 µg/mL; against P. aeruginosa PA01 (PA01), above 128 µg/mL; against P. aeruginosa PA01 (setting [2]), 128 µg/mL (≈ 183 µM); in the assay with K. pneumonia NCTC 13439, 4 to 8 µg/mL (≈ 5.72 to 11.4 µM); with K. pneumonia MGH 78578, 4 to 8 µg/mL (≈ 5.72 to 11.4 µM); in the assay with NCTC 13368 (setting [3]), 16 to 32 µg/mL (≈ 22.9 to 45.8 µM). Also, the MIC with M6 (setting [4]) fell in the range of 0.25 to 0.5 µg/mL (≈ 0.358 to 0.716 µM). For the same compound, the “+PABN MIC” value is 2 to 8 µg/mL with NCTC 13368 (NCTC 13368) and 0.125 µg/mL with M6 (M6).
